Assay results as given in PubChem BioAssay (NCI).
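1) Cells in 96-well plates. 2) Compound, 48 h, 5 concentrations. 3) Linear interpolation between surrounding doses. 4) Unreached endpoint = highest concentration. GI50 marks 50% less growth. The concentration for full growth arrest is given as TGI.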

Assays:
Assay in all cases: growth of human tumour cells (NCI), 48 h
786-0 renal = test system: 786-0 renal
A498 renal = test system: A498 renal
A549 NSCLC = test system: A549 NSCLC
ACHN renal = test system: ACHN renal
BT-549 breast = test system: BT-549 breast
CAKI-1 renal = test system: CAKI-1 renal
CCRF-CEM leukemia = test system: CCRF-CEM leukemia
COLO 205 colon = test system: COLO 205 colon
DU-145 prostate = test system: DU-145 prostate
EKVX NSCLC = test system: EKVX NSCLC
HCC-2998 colon = test system: HCC-2998 colon
HCT-116 colon = test system: HCT-116 colon
HCT-15 colon = test system: HCT-15 colon
HL-60(TB) leukemia = test system: HL-60(TB) leukemia
HOP-62 NSCLC = test system: HOP-62 NSCLC
HOP-92 NSCLC = test system: HOP-92 NSCLC
HS 578T breast = test system: HS 578T breast
HT29 colon = test system: HT29 colon
IGROV1 ovarian = test system: IGROV1 ovarian
K-562 leukemia = test system: K-562 leukemia
KM12 colon = test system: KM12 colon
LOX IMVI melanoma = test system: LOX IMVI melanoma
M14 melanoma = test system: M14 melanoma
MALME-3M melanoma = test system: MALME-3M melanoma
MCF7 breast = test system: MCF7 breast
MDA-MB-231 breast = test system: MDA-MB-231 breast
MDA-MB-435 = test system: MDA-MB-435
MDA-MB-468 breast = test system: MDA-MB-468 breast
NCI-H226 lung = test system: NCI-H226 lung
NCI-H23 lung = test system: NCI-H23 lung
NCI-H522 lung = test system: NCI-H522 lung
NCI/ADR-RES ovarian = test system: NCI/ADR-RES ovarian
OVCAR-3 ovarian = test system: OVCAR-3 ovarian
OVCAR-4 ovarian = test system: OVCAR-4 ovarian
OVCAR-5 ovarian = test system: OVCAR-5 ovarian
OVCAR-8 ovarian = test system: OVCAR-8 ovarian
PC-3 prostate = test system: PC-3 prostate
RPMI-8226 leukemia = test system: RPMI-8226 leukemia
RXF 393 renal = test system: RXF 393 renal
SF-268 CNS = test system: SF-268 CNS
SF-295 CNS = test system: SF-295 CNS
SF-539 CNS = test system: SF-539 CNS
SK-MEL-2 melanoma = test system: SK-MEL-2 melanoma
SK-MEL-28 melanoma = test system: SK-MEL-28 melanoma
SK-MEL-5 melanoma = test system: SK-MEL-5 melanoma
SK-OV-3 ovarian = test system: SK-OV-3 ovarian
SN12C renal = test system: SN12C renal
SNB-19 CNS = test system: SNB-19 CNS
SNB-75 CNS = test system: SNB-75 CNS
T-47D breast = test system: T-47D breast
TK-10 renal = test system: TK-10 renal
U251 CNS = test system: U251 CNS
UACC-257 melanoma = test system: UACC-257 melanoma
UACC-62 melanoma = test system: UACC-62 melanoma
UO-31 renal = test system: UO-31 renal

For `Cn1cc(-c2cc(N)n3nc(-c4c[nH]c5ccccc45)cc3n2)c2cc(Br)cnc21`, the GI50 (786-0 renal) was 1.81 µM, the TGI (786-0 renal) was 3.45 µM and the GI50 (A498 renal) was 4.9 µM. The TGI (A498 renal) was 19.1 µM, the GI50 (A549 NSCLC) was 2.78 µM and the TGI (A549 NSCLC) was 11.1 µM. For the same compound, the GI50 (ACHN renal) was 2.17 µM, the TGI (ACHN renal) was 6.21 µM and the GI50 (BT-549 breast) was 4.1 µM. For the same compound, the TGI (BT-549 breast) was 18 µM, the GI50 (CAKI-1 renal) was 1.69 µM and the TGI (CAKI-1 renal) was 3.87 µM. It also gave a GI50 (CCRF-CEM leukemia) of 3.71 µM, a TGI (CCRF-CEM leukemia) greater than 100 µM and a GI50 (COLO 205 colon) of 1.96 µM. It also gave a TGI (COLO 205 colon) of 3.59 µM, a GI50 (DU-145 prostate) of 3.58 µM and a TGI (DU-145 prostate) of 12.2 µM. For the same compound, the GI50 (EKVX NSCLC) was 3.14 µM, the TGI (EKVX NSCLC) was 13.7 µM and the GI50 (HCC-2998 colon) was 1.65 µM. The TGI (HCC-2998 colon) was 3.08 µM, the GI50 (HCT-116 colon) was 1.82 µM and the TGI (HCT-116 colon) was 3.39 µM. It also gave a GI50 (HCT-15 colon) of 1.7 µM, a TGI (HCT-15 colon) of 3.51 µM and a GI50 (HL-60(TB) leukemia) of 2.01 µM. For the same compound, the TGI (HL-60(TB) leukemia) was 4.67 µM, the GI50 (HOP-62 NSCLC) was 2.12 µM and the TGI (HOP-62 NSCLC) was 5.44 µM. The GI50 (HOP-92 NSCLC) was 1.65 µM, the TGI (HOP-92 NSCLC) was 3.44 µM and the GI50 (HS 578T breast) was 2.61 µM. It also gave a TGI (HS 578T breast) of 14.9 µM, a GI50 (HT29 colon) of 1.8 µM and a TGI (HT29 colon) of 3.61 µM. For the same compound, the GI50 (IGROV1 ovarian) was 3.29 µM, the TGI (IGROV1 ovarian) was 13.2 µM and the GI50 (K-562 leukemia) was 2.88 µM. The TGI (K-562 leukemia) was greater than 100 µM, the GI50 (KM12 colon) was 1.79 µM and the TGI (KM12 colon) was 3.98 µM. It also gave a GI50 (LOX IMVI melanoma) of 1.64 µM, a TGI (LOX IMVI melanoma) of 2.99 µM and a GI50 (M14 melanoma) of 1.91 µM. It also gave a TGI (M14 melanoma) of 3.87 µM, a GI50 (MALME-3M melanoma) of 2.14 µM and a TGI (MALME-3M melanoma) of 4.52 µM. For the same compound, the GI50 (MCF7 breast) was 1.95 µM, the TGI (MCF7 breast) was 4.58 µM and the GI50 (MDA-MB-231 breast) was 1.79 µM. For the same compound, the TGI (MDA-MB-231 breast) was 3.91 µM, the GI50 (MDA-MB-435) was 1.93 µM and the TGI (MDA-MB-435) was 3.96 µM. It also gave a GI50 (MDA-MB-468 breast) of 2.23 µM, a TGI (MDA-MB-468 breast) of 5.42 µM and a GI50 (NCI-H226 lung) of 3.29 µM. For the same compound, the TGI (NCI-H226 lung) was 16.3 µM, the GI50 (NCI-H23 lung) was 1.87 µM and the TGI (NCI-H23 lung) was 4.16 µM. For the same compound, the GI50 (NCI-H522 lung) was 1.84 µM, the TGI (NCI-H522 lung) was 3.67 µM and the GI50 (NCI/ADR-RES ovarian) was 2.21 µM. For the same compound, the TGI (NCI/ADR-RES ovarian) was 5.16 µM, the GI50 (OVCAR-3 ovarian) was 1.74 µM and the TGI (OVCAR-3 ovarian) was 3.37 µM. The GI50 (OVCAR-4 ovarian) was 2.7 µM, the TGI (OVCAR-4 ovarian) was 9.4 µM and the GI50 (OVCAR-5 ovarian) was 1.82 µM. The TGI (OVCAR-5 ovarian) was 4.94 µM, the GI50 (OVCAR-8 ovarian) was 3.22 µM and the TGI (OVCAR-8 ovarian) was 15.2 µM. For the same compound, the GI50 (PC-3 prostate) was 2.41 µM, the TGI (PC-3 prostate) was 7.91 µM and the GI50 (RPMI-8226 leukemia) was 3.07 µM. The TGI (RPMI-8226 leukemia) was 10.5 µM, the GI50 (RXF 393 renal) was 2.54 µM and the TGI (RXF 393 renal) was 6.15 µM. It also gave a GI50 (SF-268 CNS) of 2.42 µM, a TGI (SF-268 CNS) of 7.66 µM and a GI50 (SF-295 CNS) of 1.81 µM. The TGI (SF-295 CNS) was 3.87 µM, the GI50 (SF-539 CNS) was 1.67 µM and the TGI (SF-539 CNS) was 3.11 µM. It also gave a GI50 (SK-MEL-2 melanoma) of 1.99 µM, a TGI (SK-MEL-2 melanoma) of 4.48 µM and a GI50 (SK-MEL-28 melanoma) of 2.18 µM. For the same compound, the TGI (SK-MEL-28 melanoma) was 5.6 µM, the GI50 (SK-MEL-5 melanoma) was 3.46 µM and the TGI (SK-MEL-5 melanoma) was 13.9 µM. The GI50 (SK-OV-3 ovarian) was 5.91 µM, the TGI (SK-OV-3 ovarian) was 34.8 µM and the GI50 (SN12C renal) was 5.02 µM. It also gave a TGI (SN12C renal) of 21.1 µM, a GI50 (SNB-19 CNS) of 2.76 µM and a TGI (SNB-19 CNS) of 8.76 µM. For the same compound, the GI50 (SNB-75 CNS) was 1.7 µM, the TGI (SNB-75 CNS) was 17.1 µM and the GI50 (T-47D breast) was 3.22 µM. It also gave a TGI (T-47D breast) of 14.3 µM, a GI50 (TK-10 renal) of 2.69 µM and a TGI (TK-10 renal) of 6.3 µM. It also gave a GI50 (U251 CNS) of 2.02 µM, a TGI (U251 CNS) of 4.53 µM and a GI50 (UACC-257 melanoma) of 3.5 µM. It also gave a TGI (UACC-257 melanoma) of 18.4 µM, a GI50 (UACC-62 melanoma) of 1.66 µM and a TGI (UACC-62 melanoma) of 3.28 µM. For the same compound, the GI50 (UO-31 renal) was 2.48 µM and the TGI (UO-31 renal) was 10.6 µM.
